{"source": "patent US20190070140A1", "about": "“COMPOSITION COMPRISING PROTECTIN DX AS ACTIVE INGREDIENT FOR PREVENTING OR TREATING HYPERLIPIDEMIA OR FATTY LIVER DISEASE” (Solvit P&F, priority 2017, published 2019)", "key": {"[1]": {"tested_on": "IRE-1, eIF2α and CHOP", "test": "Western-blot assay of phosphorylation and expression of ER stress markers in palmitate-treated HepG2 cells", "type": "cell-based, Human", "conditions": "for expression of ER stress markers IRE-1, eIF2α and CHOP: FIG. 2A", "protocol": "Human liver cells, that is, HepG2 cells (ATCC, Manassas, Va., USA) were cultured in high-glucose Dulbecco's modified eagle medium (DMEM, Invitrogen, Carlsbad, Calif., USA), which includes 10% fetal bovine serum (FBS, Invitrogen), 100 units/mL of penicillin and 100 μg/ml of streptomycin. The cells were incubated at 37° C. under a condition of 5% CO2. Mycoplasma was not detected in HepG2 cells. PDX (Cayman Chemical, Ann Arbor, Mich., USA) was dissolved in ethanol. Sodium palmitate (Sigma, St. Louis, Mo., USA) was mixed with 2% BSA (fatty acid free level; Sigma) in DMEM. […] In all experiments, the cells were treated with palmitate-BSA and PDX for 24 hours, while 2% BSA-ethanol was used as a control group. After collecting HepG2 cells, protein was extracted from the cells with a buffer (PRO-PREF; Intron Biotechnology, Seoul, Korea) at 4° C. for 1 hour. A protein sample (35 μg) was applied to 12% SDS-PAGE, transferred to a nitrocellulose film (Amersham Bioscience, Westborough, Mass., USA), detected with a primary antibody, followed by probing with a secondary antibody and another secondary antibody conjugated with horseradish […] (Santa Cruz Biotechnology). The sample was detected by ECL kit. Under 70% comfluency, 0 to 20 nmol/L […] (si)RNA oligonucleotide to ORP150 purchased from Santa Cruz Biotechnology was transfected to inhibit gene expression. Scramble siRNA was used as a control group. 2 or 4 μg of pCMV3-ORP150 (Sino Biological, Beijing, China) was transiently transfected, leading to over-expression of ORP150. pCMV3 empty-vector was used as a control group. According to instruction of the manufacturer, transfection was executed using lipofectamine 2000 (Invitrogen)."}, "[2]": {"tested_on": "HFD diet mouse", "test": "Hepatic steatosis in HFD diet mouse: H&E and Oil-Red-O staining, TG analysis kit", "type": "in vivo", "conditions": "HFD mice, PDX i.p. 1 μg/mice/day for 8 weeks", "protocol": "(§1) The present study has received the approval of the Institutional Animal Review Committee (Institutional Animal Care and Use Committee in Korea University, Seoul, Korea). The animal experiment was conducted according to the Guide for Care and Use of Laboratory Animals (NH publication, 8th Ed., 2011). A control group and a group of male C57BL/6J(B6) mice at 8 weeks of age were subjected to a normal diet (ND, Brogaarden, Gentofte, Denmark) and a high fat diet (HFD, Research Diets, New Brunswick, N.J., USA) for 8 weeks, respectively. The HFD (high fat diet) group was provided with intra-peritoneal injection of PDX for 8 weeks (1 μg/mice/day). An ethanol injection group was used as a control group.\nHepG2 cells and a cut section of the liver in a mouse were stained by Oil-Red-O staining method, in order to determine cellular triglyceride such as triglyceride, that is, TG. The liver cells were fixed with 10% formalin for 40 minutes, and then stained with Oil-Red-O solution (Sigma) at 37° C. for 1 hour. A content of Oil-Red-O stained TG was quantified by adding isopropanol to each of the samples. The mixture was gently stirred at 25° C. for 8 minutes. Lastly, 100 μl of isopropanol-extracted sample was analyzed by a spectrophotometer at 510 nm.\nTotal lipids were extracted using a mixture of 2:1 chloroform:methanol (2:1, v/v). An organic layer was dissolved in 60% methanol immediately after drying the same. The extracted TG was measured by a colormetric TG analysis kit according to instructions of the manufacturer (Biovision, Milpitas, Calif., USA).\nThe present inventors have assessed PDX effects upon lipid accumulation in a mouse. For this purpose, a liver cut section from a mouse was subjected to histological assay and western-blot assay through H&E staining and Oil-Red-O staining, while TG accumulation was measured using a TG analysis kit."}, "[3]": {"tested_on": "IRE-1, eIF2α and CHOP", "test": "Western-blot assay of ER stress markers in livers of HFD mice", "type": "in vivo, mouse", "conditions": "PDX i.p. 1 μg/mice/day for 8 weeks, FIG. 5C", "protocol": "The present study has received the approval of the Institutional Animal Review Committee (Institutional Animal Care and Use Committee in Korea University, Seoul, Korea). The animal experiment was conducted according to the Guide for Care and Use of Laboratory Animals (NH publication, 8th Ed., 2011). A control group and a group of male C57BL/6J(B6) mice at 8 weeks of age were subjected to a normal diet (ND, Brogaarden, Gentofte, Denmark) and a high fat diet (HFD, Research Diets, New Brunswick, N.J., USA) for 8 weeks, respectively. The HFD (high fat diet) group was provided with intra-peritoneal injection of PDX for 8 weeks (1 μg/mice/day). An ethanol injection group was used as a control group. […] A protein sample (35 μg) was applied to 12% SDS-PAGE, transferred to a nitrocellulose film (Amersham Bioscience, Westborough, Mass., USA), detected with a primary antibody, followed by probing with a secondary antibody and another secondary antibody conjugated with horseradish […] (Santa Cruz Biotechnology). The sample was detected by ECL kit. The present inventors have assessed PDX effects upon lipid accumulation in a mouse. For this purpose, a liver cut section from a mouse was subjected to histological assay and western-blot assay through H&E staining and Oil-Red-O staining, while TG accumulation was measured using a TG analysis kit."}, "[4]": {"test": "Body weight, liver weight and epididymal fat content of HFD mice", "type": "in vivo, mouse", "conditions": "PDX i.p. 1 μg/mice/day for 8 weeks, compared to HFD diet mice", "protocol": "as §1, with “group. According to the above experimental procedures conducted for 8 weeks, the present inventors measured body weights, daily energy intakes, liver weights and epididymal fat contents, with respect to five mice per group.” for “group.”"}}, "data": [{"smiles": "CC/C=C\\C[C@H](O)/C=C/C=C\\C=C\\[C@@H](O)C/C=C\\C/C=C\\CCC(=O)O", "note": "[PDX, 10S,17S-dihydroxy-docosa-4Z,7Z,11E,13Z,15E,19Z-hexaeonic acid]", "values": [{"measurement": "expression of ER stress markers IRE-1, eIF2α and CHOP", "setting": "[1]; palmitate + PDX + siORP150 (ORP150 silencing)", "value": "increased again"}, {"measurement": "phosphorylation and expression of ER stress markers IRE-1, eIF2α and CHOP", "setting": "[1]; palmitate-induced, 24 hours, FIG. 1C", "value": "significantly decreased depending upon a dose of PDX"}, {"measurement": "expression of ER stress markers IRE-1, eIF2α and CHOP", "setting": "[1]; scramble siRNA + palmitate + PDX", "value": "reduced"}, {"measurement": "intracellular fat deposit rate (stained liver cut section)", "setting": "[2]; compared to HFD diet group, FIG. 5A left", "value": "decrease"}, {"measurement": "accumulation of triglyceride in the liver", "setting": "[2]; vs HFD, FIG. 5A", "value": "considerably reduced"}, {"measurement": "hepatic fibrosis (stained liver cut section)", "setting": "[2]; FIG. 5A left", "value": "very little hepatic fibrosis"}, {"measurement": "liver ER stress markers IRE-1, eIF2α and CHOP", "setting": "[3]", "value": "inhibited"}, {"measurement": "body weights", "setting": "[4]; FIG. 6A", "value": "significantly reduced"}, {"measurement": "liver weights", "setting": "[4]; FIG. 6C", "value": "significantly decreased"}, {"measurement": "epididymal fat contents", "setting": "[4]; FIG. 6D", "value": "significantly decreased"}]}]}
